Experimental data taken from US20150050734A1, “Carbon Nanotubes And Methods Of Use” (DUKE UNIVERSITY, priority 2012, published 2015).
“Also recorded” adds a separate entry of the source.

Assays:
primary cortical neurons = test: Clomeleon-based ratiometric chloride imaging; format: cell-based, rat; settings: for effect on neuronal [Cl−]i: KN93 1 μM
Experimental: The preparation of primary cortical neurons was adapted from a previous protocol. […] Briefly, cortices were microdissected from embryonic rats (E18) or mice (E16.5).
The tissue was dissociated using papain, followed by mechanical dissociation. Cytosine arabinoside (2.5 μM) was added to cultures to inhibit the proliferation of non-neuronal cells. Cell suspension was plated at a density of 10^6 cells mL^−1 onto tissue-culture dishes. 12 mm-diameter matrix-covered glass coverslips were contained in tissue culture dishes, typically n=3.

KCC2 = KCC2 immunocytochemistry / densitometry in cultured neurons; format: cell-based, rat; settings: KN93 1 μM
Experimental: Confocal fluorescence imaging was conducted after immunolabeling for β3-tubulin (mouse monoclonal antibody; 1:200, Iowa hybridoma bank, Iowa City, United States), and KCC2 (rabbit polyclonal antibody; Abcam; 1:200). Id.. Fluorescently labeled sections were visualized in a Zeiss LSM710 (Carl Zeiss AG, Oberkochen, Germany) confocal imaging suite with lasers tuned to the […] spectra of the secondary fluorescent antibodies (coupled to Alexa-488 and Alexa-595 dyes), as described previously. Li, J. et al. (2011) Environ Health Perspect 119:784-793.
Morphometry for confocal and light-microscopy acquired images was conducted as previously described. Yeo, M. et al. (2009) J. Neurosci 29:14652-14662.

Compound | effect on acceleration of the chloride shift and upregulation of KCC2 (primary cortical neurons; KN62 1 μM, fwCNT-cultured primary neurons) | effect on neuronal [Cl−]i (primary cortical neurons; Au-cultured neurons) | effect on neuronal [Cl−]i (primary cortical neurons; fwCNT-cultured neurons) | effect on KCC2 expression (KCC2; Au-cultured neurons) | effect on KCC2 upregulation (KCC2; fwCNT-cultured neurons)
CN([C@@H](Cc1ccc(OS(=O)(=O)c2cccc3cnccc23)cc1)C(=O)N1CCN(c2ccccc2)CC1)S(=O)(=O)c1cccc2cnccc12 [KN62] | Dependence of acceleration of the chloride shift and upregulation of KCC2 |  |  |  | 
COc1ccc(S(=O)(=O)N(CCO)c2ccccc2CN(C)C/C=C/c2ccc(Cl)cc2)cc1 [KN93] |  | also not on Au-cultured neurons | specific and powerful effect | modest reduction; also recorded: relative lack effect | strict dependence
